Results: patent publication US7825294B2 (priority 2006, dated 2010)

Tests used:
Type in all cases: cell-based
[1] = tested on: Fusarium graminearum (FGR); conditions: standard plate assay, 4,000 spores/mL, ¼× potato dextrose broth, 28° C., 24 to 48 hours
[2] = tested on: Fusarium verticillioides (FVE)
[3] = tested on: Colectotricum graminicola (CGR); conditions: standard plate assay, 4,000 spores/mL, ¼× Czapec-Dox V8, 28° C., 24 to 48 hours
Diplodia maydis (DMA) = conditions: standard plate assay, 6,000 spores/mL, ¼× potato dextrose broth, 28° C., 24 to 48 hours

Molecule: Domain B (SPKKDEHEHCGKHASFNEEKKECVCHDKSEVFEKHHKKCKKAKDEKKKDDKKH; Domain B of SEQ ID NO34)
- antifungal activity against FGR [1]: showed antifungal activity to varying extents

Molecule: Domain C (KKDKHHDHCGKHASYSEEKKECVCHNKAEVFERKHKKCKKHISLR; Domain C of SEQ ID NO34)
- antifungal activity against FGR [1]: showed antifungal activity to varying extents

Molecule: Domain D (SIFNHCGRHAYYDEAKKECICHDAGKDFLKKHKTCACPQGEKWHHIERKCKA; Domain D of SEQ ID NO34)
- antifungal activity against FGR [1]: showed antifungal activity to varying extents

Molecule: SEQ ID NO:1: antipathogenic polypeptide (52 amino acids) isolated from a fungal fermentation broth extract of Fusarium oxysporum, designated LB-12265 (SILHHCGKHASWDHAKSECVCHDSGKVYTKKHHKCKCPKGEKWHHIEKKCKK; PEPTIDE (1)...(52) Predicted mature LB-12265 peptide; listed as Fusarium oxysporum)
- antifungal activity against FVE [2]: showed antifungal activity
- antifungal activity against FGR [1]: showed antifungal activity
- antifungal activity against CGR [3]: showed antifungal activity
- antifungal activity against DMA (Diplodia maydis (DMA)): showed antifungal activity

Molecule: SEQ ID NO:3: deduced amino acid sequence encoded by a nucleotide sequence from a fungal contaminant, most likely Fusarium, of a proprietary maize EST library (SILHHCGKHASWDHAKSECVCHDSGKVYTKKHHKCKCPKGEKWHHIEKKCKK; Deduced amino acid sequence encoded by SEQ ID NO4 from a fungal contaminant of Zea mays)
- antifungal activity against FVE [2]: has antifungal activity

B1: SEQ ID NO:11: Q174 protein isolated from Hypocrea lixii (Accession No. CAA64974) (protein, listed as Hypocrea lixii)
chain: MLLKQVLVAALLSLSSVTAFPNPNNLHDVEARDVEDNLVARGGSHDCGSYASWNNGKNCCVCKDNGKNYDSKSKSCNCPSGYTWNGHQCVHDCGKDATWQYGNCVCNKKGEVYNPKDKTCSCPPGQYWNGKNCQVDCGKDASYDYKQKKCVCKKHGEIYNSNSKTCSCPPGQVWNGYACVVDCGKEAHFDNKQKKCVCNNYGEIYNSGSKTCACPGGQYFNGKKCVCPYGKVWNGKQCVEDCGKEAHFDYNQKKCVCKNNGEVYNSAKKTCSCPDGQYWNGKQCVCPYGQVFNGKQCVPDCGKEATFDYNQKKCVCKNKGEIYDSKTKTCSCPDGQVWNGKQCVCPYGQVFNGKQCVPDCGKDATYDYNQKKCVCKNKGEVFDQKTKTCSCPDGQYWNGKQCACPYGQIFNGKQCVPDCGKDATYDYNQKKCVCKNKGEVFDQKTKTCSCPDGQYWNGKQCVCPYGKIFDGKQCVEDCGKDAHFDNNQKKCVCNKNGEIYDSKSKTCSCPDSQYWDGSKCACPYGTVWDGKHCNQDCGKDAHFDSNQKKCVCNKQGEVYDSKSKTCSCPDGQYWDGSKCACPYGKVWDGKQCVPNCGKDASYDSKQNKCVCKNIGQVFDTKSLTCSCPAGTSWNGHACVQDCGKDAHYDSNQKCCVCNNKGESYDSKSKTCSCPGNQYWDGNKCACPYGSTWDSSKKTCKMNYP
- antifungal activity against FVE [2]: showed antifungal activity to varying extents
- antifungal activity against FGR [1]: showed antifungal activity to varying extents
- antifungal activity against CGR [3]: showed antifungal activity to varying extents
- antifungal activity against DMA (Diplodia maydis (DMA)): showed antifungal activity to varying extents
